Measured values reported in patent US7947706B2, “Substituted pyrrolopyridines, compositions containing them, manufacturing process therefor and use thereof” (Sanofi-Aventis Deutschland GmbH, priority 2005, dated 2011).

Tests used:
KDR = target: T1, KDR (Homo sapiens, UniProt P35968); assay: KDR substrate phosphorylation test, scintillation technique; type: biochemical; settings: GST-KDR cytoplasmic domain, PLCγ SH2-SH3 substrate, 33P-ATP, 1 hour at 37° C.
T1 construct: The cytoplasmic domain of the human KDR enzyme; GST; made in house; host or cells: SF21 insect cells (baculovirus, pFastBac)
T1 sequence (P35968 786-1356 limits assumed): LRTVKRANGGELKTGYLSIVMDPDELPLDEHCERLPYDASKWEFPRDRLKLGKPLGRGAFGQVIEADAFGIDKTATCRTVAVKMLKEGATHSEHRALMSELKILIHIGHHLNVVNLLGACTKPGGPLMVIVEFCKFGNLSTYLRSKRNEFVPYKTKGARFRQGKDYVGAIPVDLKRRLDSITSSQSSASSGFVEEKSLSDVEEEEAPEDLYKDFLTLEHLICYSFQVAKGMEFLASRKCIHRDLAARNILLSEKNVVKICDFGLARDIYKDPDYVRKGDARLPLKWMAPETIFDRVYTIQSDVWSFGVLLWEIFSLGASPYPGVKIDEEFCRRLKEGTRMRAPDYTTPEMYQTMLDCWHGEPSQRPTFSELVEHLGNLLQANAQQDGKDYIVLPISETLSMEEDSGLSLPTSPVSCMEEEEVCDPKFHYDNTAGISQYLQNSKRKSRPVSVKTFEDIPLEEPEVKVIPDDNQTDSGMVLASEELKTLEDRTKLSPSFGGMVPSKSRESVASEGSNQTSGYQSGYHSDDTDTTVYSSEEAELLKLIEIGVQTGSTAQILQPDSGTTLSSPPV
Method: The inhibitory effect of the compounds is determined in an in vitro test of phosphorylation of substrate with the enzyme KDR via a scintillation technique (96-well plate, NEN).
The cytoplasmic domain of the human KDR enzyme was cloned in the form of a GST fusion in the pFastBac baculovirus expression vector. The protein was expressed in the SF21 cells and purified to about 60% homogeneity.
The KDR kinase activity is measured in 20 mM MOPS, 10 mM MgCl2, 10 mM MnCl2, 1 mM DTT, 2.5 mM EGTA, 10 mM b-glycerophosphate, pH=7.2, in the presence of 10 mM MgCl2, 100 μm Na3VO4, 1 mM NaF. 10 μl of the compound are added to 70 μl of kinase buffer containing 100 ng of KDR enzyme at 4° C. The reaction is initiated by adding 20 μl of solution containing 2 μg of substrate (SH2-SH3 fragment of PLCγ expressed in the form of a GST fusion protein), 2 μCi of γ^33P[ATP] and 2 μm of cold ATP. After incubation for 1 hour at 37° C., the reaction is stopped by adding 1 volume (100 μl) of 200 mM EDTA. The incubation buffer is removed, and the wells are washed three times with 300 μl of PBS. The radioactivity in each well is measured using a Top Count NXT radioactivity counter (Packard).
The background noise is determined by measuring the radioactivity in four different wells containing radioactive ATP and the substrate alone.
A total activity control is measured in four different wells containing all the reagents (γ^33P-[ATP], KDR and substrate PLCγ), but in the absence of compound.
The inhibition of the KDR activity with the compound of the invention is expressed as a percentage of inhibition of the control activity determined in the absence of compound.
Compound SU5614 (Calbiochem) (1 μM) is included in each plate as an inhibition control.

Aurora A = target: T2, Aurora A (Homo sapiens, UniProt O14965); assay: Aurora2 (Aurora-A) enzymatic test, NuMA substrate phosphorylation, radioactivity detection; type: biochemical; settings: 10 nM Aurora2, 500 nM NuMA, 1 μM ATP, 30 minutes, 37° C.; read-out: IC 50 Aurora A
T2 construct: Aurora2: whole recombinant protein comprising an N-terminal histidine tail; His (N); made in house; host or cells: E. coli
T2 sequence (O14965 1-403): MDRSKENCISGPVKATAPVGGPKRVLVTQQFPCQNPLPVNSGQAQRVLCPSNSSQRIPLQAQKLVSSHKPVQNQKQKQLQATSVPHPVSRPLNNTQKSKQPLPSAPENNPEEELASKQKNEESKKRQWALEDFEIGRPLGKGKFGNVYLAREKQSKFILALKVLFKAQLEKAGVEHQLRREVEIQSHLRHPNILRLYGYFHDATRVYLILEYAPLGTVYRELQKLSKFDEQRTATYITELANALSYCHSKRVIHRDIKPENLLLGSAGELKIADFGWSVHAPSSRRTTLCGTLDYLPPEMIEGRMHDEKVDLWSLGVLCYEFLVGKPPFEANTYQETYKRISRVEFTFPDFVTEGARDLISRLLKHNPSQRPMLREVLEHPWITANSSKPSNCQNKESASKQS
Method: (§1) The inhibitory effect of compounds with respect to the kinases Aurora1 and Aurora2 is determined by means of an enzymatic test using radioactivity detection.
(§2) The kinase activity of Aurora1 and Aurora2 is evaluated via the phosphorylation of the substrate Numa-histidine in the presence of radiolabelled ATP ([^33P]ATP) using 96-well Flashplate plates in which the nickel chelate is bound to the surface of the microplate. The amount of ^33P phosphate incorporated into the NuMA substrate is proportional to the activity of the enzyme Aurora1 or Aurora2.
Aurora2: whole recombinant protein comprising an N-terminal histidine tail, was expressed in E. coli and purified to more than 82%.
(§3) NuMA (nuclear protein that combines with the mitotic apparatus): 424-amino acid fragment, expressed in E. coli, the N-terminal end of which has been labelled with histidine, and used as substrate for the two Aurora enzymes.
(§4) The microplates used are 96-well Flash-Plate plates, nickel chelate (Perkin-Elmer, model SMP107).
(§5) The products to be evaluated are incubated in a reaction volume of 100 μL per well, in the presence of 10 nM of Aurora1 or Aurora2, 500 nM of NuMA substrate in a buffer composed of 50 mM Tris/HCl (pH 7.5), 50 mM NaCl, 5 mM MgCl2 (Aurora-B) or 10 mM MgCl2 (Aurora-A) and 1 mM DTT, at 37° C.
(§6) 80 μL of enzyme/substrate incubation buffer are distributed in each well, followed by 10 μL of product to be evaluated, at variable concentrations. The reaction is initiated by adding 1 μM final of ATP containing 0.2 μCi of [^33P]ATP (10 μL). After incubating for 30 minutes, the reaction is quenched by simple removal of the reaction buffer and each well is washed twice with 300 μl of Tris/HCl buffer. The radioactivity is then measured in each well using a Packard, Top-Count model scintillation machine.
(§7) The control enzymatic activity of Aurora is expressed by the number of counts per minute obtained over 30 minutes after subtracting the background noise (reaction mixture containing no enzyme). The evaluation of the various test products is expressed as a percentage of inhibition of the Aurora activity relative to the control.

Aurora B = target: T3, Aurora B (Homo sapiens, UniProt Q96GD4); assay: Aurora1 (Aurora-B/INCENP-C3 complex) enzymatic test, NuMA substrate phosphorylation, radioactivity detection; type: biochemical; settings: 10 nM Aurora1 (Aurora-B/INCENP-C3), 500 nM NuMA, 1 μM ATP, 30 minutes, 37° C.; read-out: IC 50 Aurora B
T3 construct: His (N); made in house
T3 sequence (Q96GD4 whole entry): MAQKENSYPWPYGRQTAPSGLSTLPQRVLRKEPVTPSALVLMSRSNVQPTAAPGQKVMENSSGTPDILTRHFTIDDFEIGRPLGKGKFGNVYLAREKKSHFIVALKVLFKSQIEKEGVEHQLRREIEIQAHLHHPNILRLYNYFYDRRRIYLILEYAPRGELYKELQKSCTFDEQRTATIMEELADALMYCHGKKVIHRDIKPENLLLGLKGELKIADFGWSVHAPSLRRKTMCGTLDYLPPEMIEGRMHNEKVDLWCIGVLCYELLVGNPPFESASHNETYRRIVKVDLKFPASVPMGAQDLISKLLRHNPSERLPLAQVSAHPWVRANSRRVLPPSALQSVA
T3 sequence (Q9NQS7 826-900 partner limits assumed): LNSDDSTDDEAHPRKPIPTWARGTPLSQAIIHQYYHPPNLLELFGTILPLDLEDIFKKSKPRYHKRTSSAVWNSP
Method: as §1, §2
Aurora1: Aurora-B/INCENP-C3 recombinant complex, purified to about 50%, the N-terminal end of Aurora-B of which has been labelled with histidine.
as §3, §4, §5, §6, §7

Row | IC50 (KDR) [nM] | IC50 (Aurora A) [nM] | IC50 (Aurora B) [nM] | melting point [°C] | SMILES
1 | 29 | 172 | 138 | 286 | NC(=O)c1[nH]c2cnccc2c1-c1ccc(NC(=O)Nc2cc(C(F)(F)F)ccc2F)cc1 [Example 1, 3-{4-[3-(2-Fluoro-5-trifluoromethylphenyl)ureido]phenyl}-1H-pyrrolo[2,3-c]pyridine-2-carboxamide]
2 | 150 | 222 | 196 | 227 | COc1ccc(C)cc1NC(=O)Nc1ccc(-c2c(C(N)=O)[nH]c3cnccc23)cc1 [Example 2, 3-{4-[3-(2-Methoxy-5-methylphenyl)ureido]phenyl}-1H-pyrrolo[2,3-c]pyridine-2-carboxamide]
3 | 258 | 131 | 67 | 222 | Cc1ccc(F)c(NC(=O)Nc2ccc(-c3c(C(N)=O)[nH]c4cnccc34)cc2)c1.O=C(O)C(F)(F)F [Example 5, 3-{4-[3-(2-Fluoro-5-methylphenyl)ureido]phenyl}-1H-pyrrolo[2,3-c]pyridine-2-carboxamide trifluoroacetate]
4 | 34 | 553 | 133 | 232 | NC(=O)c1[nH]c2ncccc2c1-c1ccc(NC(=O)Nc2cc(C(F)(F)F)ccc2F)cc1 [Example 7, 3-{4-[3-(2-Fluoro-5-trifluoromethylphenyl)ureido]phenyl}-1H-pyrrolo[2,3-b]pyridine-2-carboxamide]
